Laboratory results taken from patent US20220306659A1, “COMPOUND INHIBITING AND INDUCING DEGRADATION OF EGFR AND ALK” (BEIJING TIDE PHARMACEUTICAL CO., LTD., priority 2019, published 2022).

Legend:
ALK = ALK (Homo sapiens, UniProt Q9UM73); assay: Assay of activity on ALK kinase; type: biochemical; details: kinase inhibition
Experimental: (§1) Assay of activity on ALK kinase
(§2) (1) A compound stock solution was prepared;
(§3) (2) The compound stock solution was diluted 3× to obtain a compound dilution;
(§4) (5) 5 μl of the 2× kinase working solution was added to the reaction plate, centrifuged at 1,000 rpm for 1 min, and incubated at 25° C. for 15 min;
(§5) (7) 5 μl of the TK-substrate-biotin and ATP (the mixture prepared in step (6)) was added to initiate the reaction;
(§6) (8) The mixture was centrifuged at 1,000 g for 30 s; the plate was sealed, and incubated at 25° C. for 60 min;
(§7) (11) The mixture was centrifuged at 1,000 g for 1 min, and incubated at 25° C. for 60 min;
(§8) Formula of inhibition rate (%): […]
(§9) The nonlinear regression curve (dose response-variable slope) between the value of inhibition rate (%) and the logarithm of compound concentration was fitted with graphpad prism 8.0, the effect dose curve of compound was drawn, and the IC50 value was calculated.
(§10) Y=Bottom+(Top−Bottom)/(1+10^((LogIC50−X)*Hill Slope))
(§11) X-axis: logarithm of compound concentration; Y axis: inhibition rate ([…])

ALK^G1202R = ALK^G1202R (Homo sapiens, UniProt Q9UM73, G1202R); assay: Assay of activity on ALK kinase; type: biochemical; details: kinase inhibition
Chain of ALK^G1202R (Q9UM73 19-1620 G1202R): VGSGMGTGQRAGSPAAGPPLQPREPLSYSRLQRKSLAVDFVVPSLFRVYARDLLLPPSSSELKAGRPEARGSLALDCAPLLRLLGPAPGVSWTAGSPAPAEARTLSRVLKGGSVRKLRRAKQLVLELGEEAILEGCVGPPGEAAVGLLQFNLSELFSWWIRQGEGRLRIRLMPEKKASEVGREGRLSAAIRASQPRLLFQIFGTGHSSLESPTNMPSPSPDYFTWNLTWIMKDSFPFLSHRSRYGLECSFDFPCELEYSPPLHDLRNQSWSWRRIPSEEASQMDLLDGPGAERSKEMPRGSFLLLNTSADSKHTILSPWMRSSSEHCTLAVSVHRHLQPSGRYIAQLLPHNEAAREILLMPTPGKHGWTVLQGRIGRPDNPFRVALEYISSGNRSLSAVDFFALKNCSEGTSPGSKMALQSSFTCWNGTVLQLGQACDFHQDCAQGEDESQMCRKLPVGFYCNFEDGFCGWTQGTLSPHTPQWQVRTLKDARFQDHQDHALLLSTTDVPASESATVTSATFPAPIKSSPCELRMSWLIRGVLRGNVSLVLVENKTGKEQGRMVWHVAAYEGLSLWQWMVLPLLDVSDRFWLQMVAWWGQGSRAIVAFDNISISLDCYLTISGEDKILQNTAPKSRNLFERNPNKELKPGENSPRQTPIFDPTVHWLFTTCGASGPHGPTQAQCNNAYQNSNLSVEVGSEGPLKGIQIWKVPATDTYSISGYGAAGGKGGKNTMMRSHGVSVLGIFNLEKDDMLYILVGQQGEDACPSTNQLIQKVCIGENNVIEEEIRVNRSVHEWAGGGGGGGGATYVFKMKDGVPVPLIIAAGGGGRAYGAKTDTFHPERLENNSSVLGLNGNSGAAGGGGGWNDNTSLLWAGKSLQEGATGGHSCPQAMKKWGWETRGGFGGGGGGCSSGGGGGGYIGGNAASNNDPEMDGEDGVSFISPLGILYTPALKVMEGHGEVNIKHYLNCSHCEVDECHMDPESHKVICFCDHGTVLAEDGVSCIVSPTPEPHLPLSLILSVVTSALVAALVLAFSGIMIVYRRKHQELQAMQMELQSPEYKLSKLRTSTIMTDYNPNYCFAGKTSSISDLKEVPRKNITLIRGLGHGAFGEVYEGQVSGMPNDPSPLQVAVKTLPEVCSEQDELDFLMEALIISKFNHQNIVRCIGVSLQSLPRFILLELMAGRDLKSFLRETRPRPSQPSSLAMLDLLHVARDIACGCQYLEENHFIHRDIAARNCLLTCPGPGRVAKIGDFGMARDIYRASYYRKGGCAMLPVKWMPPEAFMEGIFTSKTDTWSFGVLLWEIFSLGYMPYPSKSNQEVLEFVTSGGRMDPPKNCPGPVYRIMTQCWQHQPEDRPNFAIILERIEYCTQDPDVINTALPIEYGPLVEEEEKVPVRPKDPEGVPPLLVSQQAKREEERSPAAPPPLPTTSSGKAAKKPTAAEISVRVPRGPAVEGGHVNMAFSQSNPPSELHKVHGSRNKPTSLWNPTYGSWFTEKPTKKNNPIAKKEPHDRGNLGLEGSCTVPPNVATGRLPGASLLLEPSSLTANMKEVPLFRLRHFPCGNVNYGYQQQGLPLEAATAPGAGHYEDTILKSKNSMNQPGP
Experimental: as §1, §2, §3, §4, §5, §6, §7, §8, §9, §10, §11

Ba/F3(EML4-ALK) cells = target: T1, Ba/F3(EML4-ALK) cells (Homo sapiens, UniProt Q9UM73); assay: Assay of activity on Ba/F3(EML4-ALK) cells (CTG, 72 h); type: cell-based; details: read-out: IC50 (nM) Ba/F3(EML4-ALK)
T1 construct: fused on or other part: Q9HC35 (Echinoderm microtubule-associated protein-like 4)
Outline: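 Ba/F3(EML4-ALK) cells, 700 per well, were exposed to 3-fold serial compound dilutions for 72 h at 37° C, 5% CO2, and viability was then read by CTG luminescence.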

EGFR^L858R/T790M/C797S = EGFR^L858R/T790M/C797S (Homo sapiens, UniProt P00533, C797S/L858R/T790M); assay: EGFR inhibitory activity assay (TK-substrate-biotin/ATP, 665/615 ratio); type: biochemical; details: kinase inhibition
Chain of EGFR^L858R/T790M/C797S (P00533 25-1210 T790M/C797S/L858R): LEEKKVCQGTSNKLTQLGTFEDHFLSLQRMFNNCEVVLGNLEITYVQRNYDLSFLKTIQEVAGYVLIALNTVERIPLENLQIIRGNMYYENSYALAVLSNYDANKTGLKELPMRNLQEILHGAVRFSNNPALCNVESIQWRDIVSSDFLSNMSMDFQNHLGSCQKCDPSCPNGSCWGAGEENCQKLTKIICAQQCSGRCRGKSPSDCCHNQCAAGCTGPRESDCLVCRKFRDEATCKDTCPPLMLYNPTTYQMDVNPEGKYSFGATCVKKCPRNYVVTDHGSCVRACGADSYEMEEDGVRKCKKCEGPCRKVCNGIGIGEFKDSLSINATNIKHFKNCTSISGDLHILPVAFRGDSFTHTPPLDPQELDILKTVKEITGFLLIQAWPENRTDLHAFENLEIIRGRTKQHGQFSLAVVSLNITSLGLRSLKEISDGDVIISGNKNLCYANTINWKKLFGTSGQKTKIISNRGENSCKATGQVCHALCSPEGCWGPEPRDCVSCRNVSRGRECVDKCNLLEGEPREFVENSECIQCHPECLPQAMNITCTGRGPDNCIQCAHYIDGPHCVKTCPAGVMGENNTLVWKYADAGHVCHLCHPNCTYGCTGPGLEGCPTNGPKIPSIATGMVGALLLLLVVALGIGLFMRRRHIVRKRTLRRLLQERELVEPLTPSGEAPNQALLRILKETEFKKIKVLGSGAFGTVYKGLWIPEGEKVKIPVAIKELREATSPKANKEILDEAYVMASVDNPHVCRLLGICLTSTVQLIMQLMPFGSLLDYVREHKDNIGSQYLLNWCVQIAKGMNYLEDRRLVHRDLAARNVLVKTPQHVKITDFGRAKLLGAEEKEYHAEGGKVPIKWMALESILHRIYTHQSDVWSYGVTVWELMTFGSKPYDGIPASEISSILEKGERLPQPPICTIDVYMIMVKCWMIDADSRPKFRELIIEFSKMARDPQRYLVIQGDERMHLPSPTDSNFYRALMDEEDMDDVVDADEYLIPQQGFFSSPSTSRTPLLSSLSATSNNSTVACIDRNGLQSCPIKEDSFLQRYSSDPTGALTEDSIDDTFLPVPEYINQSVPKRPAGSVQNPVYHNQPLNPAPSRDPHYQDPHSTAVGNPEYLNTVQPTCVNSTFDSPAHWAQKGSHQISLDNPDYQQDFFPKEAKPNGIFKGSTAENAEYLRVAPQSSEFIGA
Outline: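 HTRF kinase assay: enzyme preincubated with compound 10 min at room temperature, then reacted with biotinylated TK substrate and ATP for 40 min at room temperature.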

[1] = target: Ba/F3(EGFR^Del19/T790M/C797S) cells (Homo sapiens, UniProt P00533, DEL746-750/T790M/C797S, cells depend on it); assay: Assay of activity on Ba/F3 cells (CTG, 72 h); type: cell-based; details: read-out: IC50 (nM) Ba/F3 (EGFR^Del19/T790M/C797S)
Chain of Ba/F3(EGFR^Del19/T790M/C797S) cells (P00533 with tags, fused parts or gaps DEL746-750/T790M/C797S): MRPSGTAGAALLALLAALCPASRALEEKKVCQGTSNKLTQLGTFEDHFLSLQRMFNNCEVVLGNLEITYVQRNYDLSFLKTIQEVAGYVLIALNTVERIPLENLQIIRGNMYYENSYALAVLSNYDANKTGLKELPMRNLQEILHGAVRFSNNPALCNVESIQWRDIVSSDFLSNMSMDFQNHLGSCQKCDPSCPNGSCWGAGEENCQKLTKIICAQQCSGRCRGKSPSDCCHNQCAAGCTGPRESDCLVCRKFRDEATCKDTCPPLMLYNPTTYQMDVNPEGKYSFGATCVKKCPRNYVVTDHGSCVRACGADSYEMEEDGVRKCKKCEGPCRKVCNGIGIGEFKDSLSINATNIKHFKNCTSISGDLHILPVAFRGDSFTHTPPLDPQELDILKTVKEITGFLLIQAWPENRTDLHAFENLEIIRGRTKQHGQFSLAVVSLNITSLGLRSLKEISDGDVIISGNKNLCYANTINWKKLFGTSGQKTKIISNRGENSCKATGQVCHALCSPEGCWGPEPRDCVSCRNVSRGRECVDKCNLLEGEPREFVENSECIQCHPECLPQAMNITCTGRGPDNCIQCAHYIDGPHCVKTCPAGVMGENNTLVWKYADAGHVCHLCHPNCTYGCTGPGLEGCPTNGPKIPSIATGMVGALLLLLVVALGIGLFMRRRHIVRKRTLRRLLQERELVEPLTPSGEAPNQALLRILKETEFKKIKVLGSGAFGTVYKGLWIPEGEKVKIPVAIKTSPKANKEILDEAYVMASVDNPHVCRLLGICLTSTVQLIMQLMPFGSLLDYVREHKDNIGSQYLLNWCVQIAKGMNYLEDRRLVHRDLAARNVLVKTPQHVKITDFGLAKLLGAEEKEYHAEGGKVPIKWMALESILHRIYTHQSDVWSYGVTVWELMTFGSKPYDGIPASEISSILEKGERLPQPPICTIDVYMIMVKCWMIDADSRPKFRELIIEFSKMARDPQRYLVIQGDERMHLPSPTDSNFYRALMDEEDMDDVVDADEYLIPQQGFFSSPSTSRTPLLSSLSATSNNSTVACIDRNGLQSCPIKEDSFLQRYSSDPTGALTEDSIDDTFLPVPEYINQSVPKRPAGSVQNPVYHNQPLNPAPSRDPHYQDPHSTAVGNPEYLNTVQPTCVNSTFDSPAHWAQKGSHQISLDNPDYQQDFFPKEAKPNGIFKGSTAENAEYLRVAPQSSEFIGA
Outline: (§12)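 Ba/F3 cells dependent on each EGFR triple mutant were exposed to 3-fold compound dilutions for 72 h at 37° C, 5% CO2, with CellTiter-Glo luminescence as the read-out.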

EGFR^Del19/T790M/C797S = EGFR^Del19/T790M/C797S (Homo sapiens, UniProt P00533, C797S/DEL746-750/T790M); assay: EGFR inhibitory activity assay (TK-substrate-biotin/ATP, 665/615 ratio); type: biochemical; details: kinase inhibition
Chain of EGFR^Del19/T790M/C797S (P00533 with tags, fused parts or gaps DEL746-750/T790M/C797S): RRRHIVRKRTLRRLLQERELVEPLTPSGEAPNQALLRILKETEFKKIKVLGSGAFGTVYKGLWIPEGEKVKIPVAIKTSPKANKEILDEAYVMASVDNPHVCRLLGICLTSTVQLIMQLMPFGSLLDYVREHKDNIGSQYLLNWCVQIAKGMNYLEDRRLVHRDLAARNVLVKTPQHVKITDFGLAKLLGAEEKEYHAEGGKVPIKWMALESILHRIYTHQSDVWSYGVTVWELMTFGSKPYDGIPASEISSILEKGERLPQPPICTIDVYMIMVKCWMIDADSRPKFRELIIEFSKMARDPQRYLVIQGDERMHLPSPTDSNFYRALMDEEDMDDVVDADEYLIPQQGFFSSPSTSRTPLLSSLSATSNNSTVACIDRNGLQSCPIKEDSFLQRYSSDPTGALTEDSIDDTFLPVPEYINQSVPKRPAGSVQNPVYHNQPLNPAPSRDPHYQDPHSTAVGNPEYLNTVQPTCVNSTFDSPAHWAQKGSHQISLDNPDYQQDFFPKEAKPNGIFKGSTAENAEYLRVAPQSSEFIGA
Experimental: EGFR Inhibitory Activity Assay
(2) The plate was sealed, and centrifuged at 1,000 g for 1 min;
(4) 5 μl of the 2×EGFR protein working solution was added to the 384-well plate from step (2), centrifuged at 1,000 g for 30 s, and allowed to stand at room temperature (mixed thoroughly) for 10 min;
(6) 5 µL of the TK-substrate-biotin and ATP (the mixture prepared in step (5)) was added to the 384-well plate from step (4) to initiate the reaction;
(7) The mixture was centrifuged at 1,000 g for 30 s; the plate was sealed, and allowed to stand (and reacted) at room temperature for 40 min;
(10) The mixture was centrifuged at 1,000 g for 30 s, and allowed to stand (reacted) at room temperature for 1 h;
as §8, §9

[2] = target: Ba/F3(EGFR^L858R/T790M/C797S) cells (Homo sapiens, UniProt P00533, T790M/C797S/L858R, cells depend on it); assay: Assay of activity on Ba/F3 cells (CTG, 72 h); type: cell-based; details: read-out: IC50 (nM) Ba/F3 (EGFR^L858R/T790M/C797S)
Outline: as §12

Chain of ALK (Q9UM73 19-1620): as the sequence (Q9UM73 19-1620 G1202R) above, with R1184G counted along it

Row | SMILES | IC50 (ALK) [nM] | IC50 (ALK^G1202R) [nM] | GI50 (Ba/F3(EML4-ALK) cells) [nM] | IC50 (EGFR^L858R/T790M/C797S) [nM] | GI50 [1] [nM] | IC50 (EGFR^Del19/T790M/C797S) [nM] | GI50 [2] [nM]
1 | COc1cc(N2CCC(N3CCN(C(=O)CCCCCCOc4cccc5c4C(=O)N(C4CCC(=O)NC4=O)C5=O)CC3)CC2)ccc1Nc1ncc(Cl)c(Nc2ccccc2P(C)(C)=O)n1 (stereo not drawn) [Compound A2, 4-((7-(4-(1-(4-((5-chloro-4-((2-(dimethylphosphoryl)phenyl)amino)pyrimidin-2-yl)amino)-3-methoxyphenyl)piperidin-4-yl)piperazin-1-yl)-7-oxoheptyl)oxy)-2-(2,6-dioxopiperidin-3-yl)isoindoline-1,3-dione] | 1 to 100 | – | – | 1 to 100 | – | 101 to 200 | 201 to 300
2 | COc1cc(N2CCC(N3CCN(C(=O)CCCCCCc4cccc5c4C(=O)N(C4CCC(=O)NC4=O)C5=O)CC3)CC2)ccc1Nc1ncc(Cl)c(Nc2ccccc2P(C)(C)=O)n1 (stereo not drawn) [Compound A1, 4-(7-(4-(1-(4-((5-chloro-4-((2-(dimethylphosphoryl)phenyl)amino)pyrimidin-2-yl)amino)-3-methoxyphenyl)piperidin-4-yl)piperazin-1-yl)-7-oxoheptyl)-2-(2,6-dioxopiperidin-3-yl)isoindoline-1,3-dione] | 101 to 200 | – | – | 1 to 100 | – | 101 to 200 | 201 to 300

Continued, values first:

Row | IC50 (ALK) [nM] | IC50 (ALK^G1202R) [nM] | GI50 (Ba/F3(EML4-ALK) cells) [nM] | IC50 (EGFR^L858R/T790M/C797S) [nM] | GI50 [1] [nM] | IC50 (EGFR^Del19/T790M/C797S) [nM] | GI50 [2] [nM] | SMILES
3 | 1 to 100 | 201 to 300 | 1 to 100 | 1 to 100 | 1 to 100 | 1 to 100 | – | COc1cc(N2CCC(N3CCN(CCCCC#Cc4ccc5c(c4)CN(C4CCC(=O)NC4=O)C5=O)CC3)CC2)ccc1Nc1ncc(Cl)c(Nc2ccccc2P(C)(C)=O)n1 (stereo not drawn) [Compound C192, 3-(5-(6-(4-(1-(4-((5-chloro-4-((2-(dimethylphosphoryl)phenyl)amino)pyrimidin-2-yl)amino)-3-methoxyphenyl)piperidin-4-yl)piperazin-1-yl)hex-1-yn-1-yl)-1-oxoisoindolin-2-yl)piperidine-2,6-dione]
4 | 1 to 100 | 201 to 300 | 1 to 100 | 1 to 100 | 1 to 100 | 1 to 100 | – | COc1cc(N2CCC(N3CCN(CCCCCCC#Cc4cccc5c4CN(C4CCC(=O)NC4=O)C5=O)CC3)CC2)ccc1Nc1ncc(Cl)c(Nc2ccccc2P(C)(C)=O)n1 (stereo not drawn) [Compound C177, 3-(4-(8-(4-(1-(4-((5-chloro-4-((2-(dimethylphosphoryl)phenyl)amino)pyrimidin-2-yl)amino)-3-methoxyphenyl)piperidin-4-yl)piperazin-1-yl)oct-1-yn-1-yl)-1-oxoisoindolin-2-yl)piperidine-2,6-dione]
5 | 1 to 100 | 201 to 300 | 1 to 100 | 1 to 100 | 1 to 100 | 1 to 100 | – | COc1cc(N2CCC(N3CCN(CCCCCCCC#Cc4cccc5c4CN(C4CCC(=O)NC4=O)C5=O)CC3)CC2)ccc1Nc1ncc(Cl)c(Nc2ccccc2P(C)(C)=O)n1 (stereo not drawn) [Compound C178, 3-(4-(9-(4-(1-(4-((5-chloro-4-((2-(dimethylphosphoryl)phenyl)amino)pyrimidin-2-yl)amino)-3-methoxyphenyl)piperidin-4-yl)piperazin-1-yl)non-1-yn-1-yl)-1-oxoisoindolin-2-yl)piperidine-2,6-dione]
6 | – | – | 1 to 100 | 1 to 100 | 1 to 100 | 1 to 100 | – | COc1cc(N2CCC3(CCN(CCCCC#Cc4cccc5c4CN(C4CCC(=O)NC4=O)C5=O)CC3)CC2)c(C)cc1Nc1ncc(Br)c(Nc2ccc3nccnc3c2P(C)(C)=O)n1 (stereo not drawn) [Compound C187, 3-(4-(6-(9-(4-((5-bromo-4-((5-(dimethylphosphoryl)quinoxalin-6-yl)amino)pyrimidin-2-yl)amino)-5-methoxy-2-methylphenyl)-3,9-diazaspiro[5.5]undecan-3-yl)hex-1-yn-1-yl)-1-oxoisoindolin-2-yl)piperidine-2,6-dione]
